PMC8155022 (Scientific Reports, 2021)
pIC50: −log10 of the molar value. Read-outs that look alike come from different tables or passages of the source.

Tests used:
CaMKIδ(h) = target: T1, CaMKIδ(h) (Homo sapiens, UniProt Q8IU85); experiment: Kinase panel; assay type: biochemical
T1 construct: purchased Cerep (receptors, ion channels, transporters); Eurofins Panlabs (kinases)
Protocol: (§2) Kinase selectivity was conducted by Eurofins Panlabs Inc (St Charles, MO).

CCR1 (h) = target: T2, CCR1 (h) (Homo sapiens, UniProt P32246); experiment: Cerep panel; assay type: binding
T2 construct: purchased Cerep (receptors, ion channels, transporters); Eurofins Panlabs (kinases)
Protocol: (§3) A panel of 52 different receptors, ion channels and transporters was tested by Cerep, Inc. (Redmond, WA).

[1] = 1-month GLP toxicity study in dogs; assay type: in vivo; conditions: Beagle, in vivo, dog; for AUC(0-t) / Cmax: po, 3 mg/kg; for AUC(0-t): read-out: AUC0-24 h at NOAEL; for Cmax: read-out: Cmax at NOAEL
Protocol: (§1) The type of study plan was reviewed and agreed by the Laboratory Animal Welfare Officer and the Animal Ethical Committee (officially known as Dierexperimentencommissie (DEC) Charles River Den Bosch), as required by the Dutch Act on Animal Experimentation (February 1997). Both rat and dog studies were performed in AALAC accredited Charles River Laboratories in the Netherlands. Studies in rats were conducted with 0, 25, 100, and 400 mg/kg per day (n = 10/sex/group) for 1 month. An additional 5 animals/sex in vehicle and high dose were allowed to continue for a 1-month treatment-free recovery period. Studies in dogs were conducted with 0, 3, 10, and 30 mg/kg per day (n = 4/sex/group) for 1 month. A treatment-free recovery period of 1 month (additional 2 dogs/sex/group) was included for both vehicle controls and high dose groups. […] Rats and dogs were examined for mortality, clinical signs, ophthalmoscopic changes, body weight, food consumption, hematology, clinical chemistry, anatomic pathology, and toxicokinetics. In addition, dogs were examined for electrocardiographic changes. Rats and dogs were also assessed for reversal of any effects following a 1-month recovery period. These studies were conducted in compliance with good laboratory practice (GLP) regulations.

Beagle dogs = experiment: 1-month GLP toxicity study in dogs; assay type: in vivo; conditions: dog
Protocol: as §1

H1 (h) = target: T3, H1 (h) (Homo sapiens, UniProt P35367); experiment: Cerep panel; assay type: binding
T3 construct: purchased Cerep (receptors, ion channels, transporters); Eurofins Panlabs (kinases)
Protocol: as §3

NK2 (h) = target: T4, NK2 (h) (Homo sapiens, UniProt P21452); experiment: Cerep panel; assay type: binding
T4 construct: purchased Cerep (receptors, ion channels, transporters); Eurofins Panlabs (kinases)
T4 sequence (P21452 1-398): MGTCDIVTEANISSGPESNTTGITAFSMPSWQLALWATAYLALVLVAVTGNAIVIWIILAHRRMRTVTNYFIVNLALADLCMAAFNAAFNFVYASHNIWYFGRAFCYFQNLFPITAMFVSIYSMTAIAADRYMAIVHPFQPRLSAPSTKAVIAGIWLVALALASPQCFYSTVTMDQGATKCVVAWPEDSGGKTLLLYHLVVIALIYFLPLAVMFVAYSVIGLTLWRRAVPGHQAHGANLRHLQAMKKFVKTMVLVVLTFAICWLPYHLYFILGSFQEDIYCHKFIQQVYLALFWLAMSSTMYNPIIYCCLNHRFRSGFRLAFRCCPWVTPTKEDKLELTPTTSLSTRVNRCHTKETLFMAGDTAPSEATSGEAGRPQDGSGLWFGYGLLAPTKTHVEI
Protocol: (§4) 28 GPCRs were evaluated through cAMP or calcium FLIPR assays[67]. A panel of 52 different receptors, ion channels and transporters was tested by Cerep, Inc. (Redmond, WA). Kinase selectivity was conducted by Eurofins Panlabs Inc (St Charles, MO).

MR = target: T5, MR (Homo sapiens, UniProt P08235); experiment: nuclear receptor cellular GAL4 reporter assay; assay type: cell-based; conditions: agonist and antagonist mode; read-out: potency in agonist and antagonist mode
T5 construct: expressed in transfected cells

IRAK4(h) = target: T6, IRAK4(h) (Homo sapiens, UniProt Q9NWZ3); experiment: Kinase panel; assay type: biochemical
T6 construct: purchased Cerep (receptors, ion channels, transporters); Eurofins Panlabs (kinases)
Protocol: as §2

5-HT2A (h) = target: T7, 5-HT2A (h) (Homo sapiens, UniProt P28223); experiment: Cerep panel; assay type: binding
T7 construct: purchased Cerep (receptors, ion channels, transporters); Eurofins Panlabs (kinases)
Protocol: as §3

[2] = system: IMQ-induced skin inflammation in mice; experiment: imiquimod-induced dermal inflammation model; assay type: in vivo, mouse
AT1 = AT1 (Homo sapiens, UniProt P30556); experiment: GPCR panel, cAMP or calcium FLIPR assays; assay type: cell-based
Protocol: (§5) 28 GPCRs were evaluated through cAMP or calcium FLIPR assays[67].

V1a (h) = target: T8, V1a (h) (Homo sapiens, UniProt P37288); experiment: Cerep panel; assay type: binding
T8 construct: purchased Cerep (receptors, ion channels, transporters); Eurofins Panlabs (kinases)
Protocol: as §3

A3 = target: T9, A3 (Homo sapiens, UniProt P0DMS8); experiment: follow-up functional study; assay type: cell-based; conditions: read-out: IC50 in follow-up functional studies
T9 sequence (P0DMS8 1-318): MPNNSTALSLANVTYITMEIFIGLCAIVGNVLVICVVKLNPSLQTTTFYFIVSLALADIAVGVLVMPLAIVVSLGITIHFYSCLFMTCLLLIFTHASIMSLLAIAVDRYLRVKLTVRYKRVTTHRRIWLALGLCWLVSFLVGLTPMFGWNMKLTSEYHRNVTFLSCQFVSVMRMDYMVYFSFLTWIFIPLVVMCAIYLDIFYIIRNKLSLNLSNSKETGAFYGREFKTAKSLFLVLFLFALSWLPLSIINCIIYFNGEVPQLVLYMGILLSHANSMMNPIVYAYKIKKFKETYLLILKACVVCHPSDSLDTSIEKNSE

ADRA2A = ADRA2A (Homo sapiens, UniProt P08913); experiment: GPCR panel, cAMP or calcium FLIPR assays; assay type: cell-based
Protocol: as §5

AR = target: T10, AR (Homo sapiens, UniProt P10275); experiment: nuclear receptor cellular GAL4 reporter assay; assay type: cell-based; conditions: agonist and antagonist mode; read-out: potency in agonist and antagonist mode
T10 construct: expressed in transfected cells

MOP = MOP (Homo sapiens, UniProt P35372); experiment: GPCR panel, cAMP or calcium FLIPR assays; assay type: cell-based
Protocol: as §4

A2A (h) = target: T11, A2A (h) (Homo sapiens, UniProt P29274); experiment: Cerep panel; assay type: binding
T11 construct: purchased Cerep (receptors, ion channels, transporters); Eurofins Panlabs (kinases)
Protocol: as §3

M1 (h) = target: T12, M1 (h) (Homo sapiens, UniProt P11229); experiment: Cerep panel; assay type: binding
T12 construct: purchased Cerep (receptors, ion channels, transporters); Eurofins Panlabs (kinases)
Protocol: as §3

FGFR1(h) = target: T13, FGFR1(h) (Homo sapiens, UniProt P11362); experiment: Kinase panel; assay type: biochemical
T13 construct: purchased Cerep (receptors, ion channels, transporters); Eurofins Panlabs (kinases)
Protocol: as §2

5-HT-T = target: T14, 5-HT-T (Homo sapiens, UniProt P31645); experiment: Cerep panel; assay type: binding
T14 construct: purchased Cerep (receptors, ion channels, transporters); Eurofins Panlabs (kinases)
T14 sequence (P31645 whole entry): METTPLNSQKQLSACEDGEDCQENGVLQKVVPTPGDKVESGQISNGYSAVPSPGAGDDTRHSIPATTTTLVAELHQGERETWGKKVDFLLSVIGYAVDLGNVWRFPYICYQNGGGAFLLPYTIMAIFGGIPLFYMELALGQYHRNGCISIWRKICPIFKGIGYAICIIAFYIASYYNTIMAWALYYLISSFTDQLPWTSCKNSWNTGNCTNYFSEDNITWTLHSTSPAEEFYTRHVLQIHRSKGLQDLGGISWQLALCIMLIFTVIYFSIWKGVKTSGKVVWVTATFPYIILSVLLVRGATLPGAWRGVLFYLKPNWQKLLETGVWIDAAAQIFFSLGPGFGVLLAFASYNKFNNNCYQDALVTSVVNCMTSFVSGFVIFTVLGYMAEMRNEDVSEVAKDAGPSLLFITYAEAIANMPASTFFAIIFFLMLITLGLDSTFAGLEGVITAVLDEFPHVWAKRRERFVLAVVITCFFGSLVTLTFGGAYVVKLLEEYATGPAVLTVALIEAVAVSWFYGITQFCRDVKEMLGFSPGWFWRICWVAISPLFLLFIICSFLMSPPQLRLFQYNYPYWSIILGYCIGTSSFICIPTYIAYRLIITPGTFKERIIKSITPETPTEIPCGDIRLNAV
Protocol: 28 GPCRs were evaluated through cAMP or calcium FLIPR assays[67]. A panel of 52 different receptors, ion channels and transporters was tested by Cerep, Inc. (Redmond, WA).

T11 sequence (P29274 whole entry): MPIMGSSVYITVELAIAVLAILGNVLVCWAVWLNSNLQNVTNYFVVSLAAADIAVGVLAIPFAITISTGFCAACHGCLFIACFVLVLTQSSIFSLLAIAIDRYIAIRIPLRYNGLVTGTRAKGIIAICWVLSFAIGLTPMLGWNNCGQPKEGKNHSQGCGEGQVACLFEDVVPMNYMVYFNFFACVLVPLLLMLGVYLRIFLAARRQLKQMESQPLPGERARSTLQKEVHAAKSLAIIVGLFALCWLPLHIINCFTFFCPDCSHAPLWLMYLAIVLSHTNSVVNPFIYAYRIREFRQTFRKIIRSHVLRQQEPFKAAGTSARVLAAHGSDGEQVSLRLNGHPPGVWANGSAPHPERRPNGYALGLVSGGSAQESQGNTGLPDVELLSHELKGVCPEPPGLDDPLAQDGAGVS
ADRA2A, sequence (P08913 whole entry, species assumed, the tested form may be a part): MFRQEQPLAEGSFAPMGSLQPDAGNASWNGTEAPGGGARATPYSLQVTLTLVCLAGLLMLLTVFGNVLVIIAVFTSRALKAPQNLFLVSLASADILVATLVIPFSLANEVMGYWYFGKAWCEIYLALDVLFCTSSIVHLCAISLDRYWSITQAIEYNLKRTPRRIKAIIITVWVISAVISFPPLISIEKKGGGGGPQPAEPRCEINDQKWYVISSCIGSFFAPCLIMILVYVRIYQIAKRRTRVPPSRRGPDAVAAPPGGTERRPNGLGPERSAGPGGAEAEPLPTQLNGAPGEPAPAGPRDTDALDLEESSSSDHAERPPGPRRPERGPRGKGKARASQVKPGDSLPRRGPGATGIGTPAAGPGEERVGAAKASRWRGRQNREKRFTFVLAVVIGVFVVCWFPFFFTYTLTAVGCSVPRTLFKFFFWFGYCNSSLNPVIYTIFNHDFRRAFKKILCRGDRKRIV
T1 sequence (Q8IU85 whole entry): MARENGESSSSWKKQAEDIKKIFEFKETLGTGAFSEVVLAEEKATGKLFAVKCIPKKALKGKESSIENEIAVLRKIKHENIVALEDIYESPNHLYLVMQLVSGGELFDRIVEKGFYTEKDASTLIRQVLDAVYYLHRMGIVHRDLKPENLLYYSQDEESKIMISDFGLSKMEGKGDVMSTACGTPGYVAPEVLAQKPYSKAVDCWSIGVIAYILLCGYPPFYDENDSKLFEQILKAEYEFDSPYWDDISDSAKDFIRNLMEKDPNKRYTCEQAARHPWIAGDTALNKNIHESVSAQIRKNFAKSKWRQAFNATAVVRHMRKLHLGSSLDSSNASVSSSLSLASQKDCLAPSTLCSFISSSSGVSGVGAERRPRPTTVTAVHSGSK
T7 sequence (P28223 whole entry): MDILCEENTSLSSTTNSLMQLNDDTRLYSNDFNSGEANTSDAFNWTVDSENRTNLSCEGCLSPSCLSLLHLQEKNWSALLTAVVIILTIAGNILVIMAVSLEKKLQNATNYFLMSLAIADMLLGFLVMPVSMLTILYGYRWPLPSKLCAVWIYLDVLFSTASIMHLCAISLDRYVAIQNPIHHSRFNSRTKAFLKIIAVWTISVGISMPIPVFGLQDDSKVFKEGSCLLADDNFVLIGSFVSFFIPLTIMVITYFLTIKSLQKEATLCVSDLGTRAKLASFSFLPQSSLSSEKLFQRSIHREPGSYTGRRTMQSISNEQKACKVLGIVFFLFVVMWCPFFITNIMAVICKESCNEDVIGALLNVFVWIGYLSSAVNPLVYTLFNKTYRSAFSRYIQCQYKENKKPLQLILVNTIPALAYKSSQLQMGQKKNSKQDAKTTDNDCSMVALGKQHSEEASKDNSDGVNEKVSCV
T13 sequence (P11362 22-822): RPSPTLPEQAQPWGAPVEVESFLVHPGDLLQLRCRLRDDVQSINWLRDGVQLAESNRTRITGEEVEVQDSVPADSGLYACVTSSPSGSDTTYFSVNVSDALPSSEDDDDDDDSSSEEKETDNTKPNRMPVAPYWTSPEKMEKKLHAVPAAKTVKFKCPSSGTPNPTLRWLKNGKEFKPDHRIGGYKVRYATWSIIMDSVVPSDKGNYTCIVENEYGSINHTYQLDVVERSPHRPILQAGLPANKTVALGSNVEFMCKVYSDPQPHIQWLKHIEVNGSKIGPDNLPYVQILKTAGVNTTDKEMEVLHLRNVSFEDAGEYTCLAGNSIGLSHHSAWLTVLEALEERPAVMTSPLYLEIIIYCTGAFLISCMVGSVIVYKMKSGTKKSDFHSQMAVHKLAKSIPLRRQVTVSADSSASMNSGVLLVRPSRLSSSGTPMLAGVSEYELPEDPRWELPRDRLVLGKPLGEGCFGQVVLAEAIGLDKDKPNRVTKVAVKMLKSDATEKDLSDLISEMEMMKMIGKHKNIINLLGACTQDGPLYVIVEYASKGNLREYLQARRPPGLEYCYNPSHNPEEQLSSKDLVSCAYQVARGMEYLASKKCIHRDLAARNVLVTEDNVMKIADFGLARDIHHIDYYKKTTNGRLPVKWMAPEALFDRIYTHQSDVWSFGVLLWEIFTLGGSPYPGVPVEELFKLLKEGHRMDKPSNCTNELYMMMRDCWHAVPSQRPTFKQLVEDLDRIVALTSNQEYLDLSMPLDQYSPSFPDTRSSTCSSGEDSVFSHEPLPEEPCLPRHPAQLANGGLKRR
T6 sequence (Q9NWZ3 whole entry): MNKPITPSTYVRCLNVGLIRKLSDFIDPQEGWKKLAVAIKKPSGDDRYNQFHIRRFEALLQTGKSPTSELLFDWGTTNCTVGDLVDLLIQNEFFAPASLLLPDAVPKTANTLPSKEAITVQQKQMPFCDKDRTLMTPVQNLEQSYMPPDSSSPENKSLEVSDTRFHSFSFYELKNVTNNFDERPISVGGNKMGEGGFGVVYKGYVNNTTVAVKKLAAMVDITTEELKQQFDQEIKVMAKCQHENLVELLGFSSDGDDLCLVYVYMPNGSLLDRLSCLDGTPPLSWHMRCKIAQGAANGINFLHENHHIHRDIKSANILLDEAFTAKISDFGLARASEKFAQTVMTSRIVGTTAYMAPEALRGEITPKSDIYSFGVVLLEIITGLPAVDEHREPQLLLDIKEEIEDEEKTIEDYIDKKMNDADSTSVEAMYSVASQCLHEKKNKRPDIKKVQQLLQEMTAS
MOP, sequence (P35372 whole entry): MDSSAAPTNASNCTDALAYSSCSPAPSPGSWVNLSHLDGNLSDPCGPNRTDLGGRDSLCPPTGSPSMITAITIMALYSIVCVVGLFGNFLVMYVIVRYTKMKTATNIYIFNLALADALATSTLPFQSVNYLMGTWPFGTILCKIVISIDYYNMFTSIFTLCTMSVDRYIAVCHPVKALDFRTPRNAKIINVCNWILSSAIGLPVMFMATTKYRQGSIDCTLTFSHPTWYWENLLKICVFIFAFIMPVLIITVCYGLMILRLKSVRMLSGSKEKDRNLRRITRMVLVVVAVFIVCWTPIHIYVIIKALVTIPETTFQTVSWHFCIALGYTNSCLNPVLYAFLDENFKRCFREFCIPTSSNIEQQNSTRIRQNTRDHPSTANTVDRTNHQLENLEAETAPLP
T8 sequence (P37288 whole entry): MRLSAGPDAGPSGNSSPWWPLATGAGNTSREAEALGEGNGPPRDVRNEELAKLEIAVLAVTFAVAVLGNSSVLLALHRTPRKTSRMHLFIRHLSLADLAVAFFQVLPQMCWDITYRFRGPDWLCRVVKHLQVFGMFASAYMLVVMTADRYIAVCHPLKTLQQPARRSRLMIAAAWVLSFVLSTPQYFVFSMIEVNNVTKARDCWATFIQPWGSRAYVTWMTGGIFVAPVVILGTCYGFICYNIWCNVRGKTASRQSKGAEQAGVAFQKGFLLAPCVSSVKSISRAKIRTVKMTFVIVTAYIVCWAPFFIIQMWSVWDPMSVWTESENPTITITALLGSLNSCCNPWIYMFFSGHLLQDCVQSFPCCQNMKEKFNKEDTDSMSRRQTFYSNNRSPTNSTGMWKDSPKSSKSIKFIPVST
AT1, sequence (P30556 whole entry): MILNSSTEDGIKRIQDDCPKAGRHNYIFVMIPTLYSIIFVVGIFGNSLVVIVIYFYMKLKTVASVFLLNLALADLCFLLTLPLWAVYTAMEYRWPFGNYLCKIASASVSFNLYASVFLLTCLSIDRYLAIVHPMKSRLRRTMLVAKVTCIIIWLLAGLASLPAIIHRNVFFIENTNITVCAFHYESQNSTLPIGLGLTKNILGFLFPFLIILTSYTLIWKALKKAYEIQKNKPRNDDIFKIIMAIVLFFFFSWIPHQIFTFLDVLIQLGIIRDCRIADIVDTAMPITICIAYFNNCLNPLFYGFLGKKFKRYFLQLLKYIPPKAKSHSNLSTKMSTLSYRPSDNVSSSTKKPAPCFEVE

In the case of CC1CCCN1C(=O)c1nc(C(=O)NCC(C)(C)O)sc1-c1ccc(C(O)(C(F)(F)F)C(F)(F)F)c(Cl)c1Cl (stereo not drawn) [JNJ-61803534], the activity at 1 µM (CaMKIδ(h)) was 81%, the activity at 10 µM (CaMKIδ(h)) was 100% and the inhibition at 1 µM (CCR1 (h)) was < 10%. The inhibition at 10 µM (CCR1 (h)) was < 10%, the AUC(0-t) ([1]; female) was 142 µg·h/mL and the Cmax ([1]; female) was 7500 ng/mL. For the same compound, the AUC(0-t) ([1]; male) was 118 µg·h/mL, the Cmax ([1]; male) was 7250 ng/mL and the NOAEL at 1 month ([1]; both sexes, 1 month oral) was 3 mg/kg. For the same compound, the tolerability (Beagle dogs; 10 mg/kg/day, weight loss and reduced food consumption in the fourth week, trend for increased ALP) was “clinically well tolerated during the first 3 weeks of treatment”, the tolerability (Beagle dogs; 30 mg/kg/day, intestinal mucosal hemorrhages and slight hepatocellular lipid vacuolation in some animals) was “exceeded the maximum tolerated dose” and the “lymphocyte apoptosis in thymus” value (Beagle dogs; recovered after 1-month recovery period) was “dose-dependent lymphocyte apoptosis in thymus was observed”. The inhibition at 1 µM (H1 (h)) was < 10%, the inhibition at 10 µM (H1 (h)) was < 10% and the inhibition at 1 µM (NK2 (h); 1 µM) was < 10%. The “% Inhibition at 10 µM” value (NK2 (h); 10 µM) was 54.8%, the inhibition at 10 µM (NK2 (h); 10 µM) was > 50% and the pIC50 (MR) was < 5.82. For the same compound, the activity at 1 µM (IRAK4(h)) was 113%, the activity at 10 µM (IRAK4(h)) was 112% and the inhibition at 1 µM (5-HT2A (h)) was < 10%. For the same compound, the inhibition at 10 µM (5-HT2A (h)) was < 10%, the “IL-17A and IL-17F expression” value ([2]; 30 mg/kg, ears, RNA level) was “trend towards inhibition” and the “IMQ-induced neutrophils and inflammatory monocytes infiltrations in the ear” value ([2]; 100 mg/kg) was “significantly reduced”. The “IMQ-induced expression of IL-17A, IL-17F, and IL-22 genes” value ([2]; 100 mg/kg, ears, RNA level) was “significantly inhibited”, the “disease scores (thickness, redness, scaling) of back skin” value ([2]; 30 and 100 mg/kg oral, dose-dependent) was “significantly reduced” and the IL-10 expression ([2]; 30 and 100 mg/kg, RNA level) was “not inhibited”. The IL-23R expression ([2]; 30 and 100 mg/kg, RNA level) was “trend towards inhibition”, the IFNγ expression ([2]; RNA level) was “minimally impacted” and the “IL-17A- and IL-17A/IL-22-producing γδ T cell populations” value ([2]; ear skin and draining lymph nodes, dose-dependent) was “reduced”. The EC50 (AT1; agonist) was > 5 µM, the IC50 (AT1; antagonist) was > 5 µM and the inhibition at 1 µM (V1a (h)) was < 10%. For the same compound, the inhibition at 10 µM (V1a (h)) was 20.3%, the pIC50 (A3) was < 4.90 and the EC50 (ADRA2A; agonist) was > 12.5 µM. The IC50 (ADRA2A; antagonist) was > 12.5 µM, the pIC50 (AR) was < 5.82 and the EC50 (MOP; agonist) was > 12.5 µM. The IC50 (MOP; antagonist) was > 12.5 µM, the inhibition at 1 µM (A2A (h)) was < 10% and the inhibition at 10 µM (A2A (h)) was < 10%. For the same compound, the inhibition at 1 µM (M1 (h)) was < 10%, the inhibition at 10 µM (M1 (h)) was < 10% and the activity at 1 µM (FGFR1(h)) was 103%. For the same compound, the activity at 10 µM (FGFR1(h)) was 125%, the inhibition at 1 µM (5-HT-T) was < 10% and the inhibition at 10 µM (5-HT-T) was < 10%.
